Patent publication US20190298708A1, “METHODS OF TREATING SUBJECTS WITH AN ELEVATED NEUROFILAMENT LIGHT CHAIN LEVEL” (Coherus Biosciences, Inc., priority 2018, published 2019)

Assays:
[1] = system: relapsing-remitting multiple sclerosis (RRMS) patients; experiment: Correlation of NFL concentration with CE and T2 lesions and EDSS; assay type: in vivo, human; conditions: after six months of treatment, all groups combined
Description: Serum Nfl levels were investigated in longitudinal blood samples. The aims of this study include: • to explore the predictive value of blood NFL concentrations in patients treated with CHS-131 (also known as INT-131), • to determine the kinetics of the response to CHS-131, • to analyze NFL as a marker for the effectiveness of CHS-131 in relapsing-remitting multiple sclerosis (RRMS) patients, • to assess the value of NFL concentrations in comparing the effectiveness of CHS-131 with the effectiveness of placebo, • to correlate blood NFL with radiological and clinical outcome parameters (such as magnetic resonance imaging (MRI) (Gd+ lesion counts, T2 lesion volume), annualized relapse rate (ARR), brain atrophy and correlation with expanded disability status scale (EDSS), • to examine the prognostic value of NFL concentrations by stratification of patients related to disease activity, • to determine the risk of relapse or risk of disease progression, and • to evaluate NFL concentrations as a retreatment predictive biomarker. The correlation between NFL concentration and CE and T2 lesions was evaluated after six months of treatment with CHS-131 (all groups combined). […] The correlation between NFL concentration and EDSS was evaluated after six months of treatment with CHS-131 (all groups combined). […] Increased EDSS indicates increased disability, therefore lowering EDSS is considered effective treatment of multiple sclerosis.

[2] = system: neurofilament light chain (NFL); experiment: Blood NFL measurement by Simoa assay in RRMS patients given CHS-131; assay type: in vivo, human
Experimental: Capture monoclonal antibody (mAB) 47: 3 is buffer exchanged and diluted to 0.3 mg/mL 4×10^6 paramagnetic beads (Quanterix Corporation) are buffer exchanged and activated using 0.5 mg/mL 1-ethyl-3-(3-dimetylaminopropyl) carbodiimide (Quanterix), followed by a 30-minute incubation at room temperature (HulaMixer, Thermo Fischer Scientific). The diluted capture mAB 47:3 is conjugated with the washed and activated paramagnetic beads for a 2-hour incubation at room temperature on a mixer. After the incubation, the beads are washed three times using a magnetic separator and blocked. Next, the conjugated beads are suspended and stored at 4° C.
The Simoa assay is run on a Simoa HD-1 instrument (Quanterix) using a two-step Assay Neat 20 protocol. Briefly, 100 μL of calibrator/sample in Tris-buffered saline (TBS), 0.1% Tween 20, 1% milk powder, 400 μg/mL Heteroblock (Omega Biologicals), 25 μL conjugated beads in TBS, 0.1% Tween 20, 1% milk powder, 300 μg/mL Heteroblock, and 20 μL of mAB 2:1 (0.1 μg/mL in TBS, 0.1% Tween 20, 1% milk powder, 300 μg/mL Heteroblock) are incubated for 35 minutes 15 seconds (47 cadences with 1 cadence is 45 seconds). Next, the mixture is washed. Then, 100 μL of streptavidin-conjugated […] (150 pM; Quanterix) is added, followed by a 5 minutes 15 second (7-cadence) incubation and wash. The mixture will then be placed on a Simoa HD-1 instrument. Prior to reading, 25 μL Resorufin (3-D-galactopyranoside (Quanterix) is added. The calibrator curve is constructed using the standard from the NFL ELISA (NF-light, UmanDiagnostics). Samples and calibrators are measured in duplicates.
Serum Nfl levels were investigated in longitudinal blood samples. The aims of this study include: • to explore the predictive value of blood NFL concentrations in patients treated with CHS-131 (also known as INT-131), • to determine the kinetics of the response to CHS-131, • to analyze NFL as a marker for the effectiveness of CHS-131 in relapsing-remitting multiple sclerosis (RRMS) patients, • to assess the value of NFL concentrations in comparing the effectiveness of CHS-131 with the effectiveness of placebo, • to correlate blood NFL with radiological and clinical outcome parameters (such as magnetic resonance imaging (MRI) (Gd+ lesion counts, T2 lesion volume), annualized relapse rate (ARR), brain atrophy and correlation with expanded disability status scale (EDSS), • to examine the prognostic value of NFL concentrations by stratification of patients related to disease activity, • to determine the risk of relapse or risk of disease progression, and • to evaluate NFL concentrations as a retreatment predictive biomarker.
All patients receiving CHS-131 were orally adminisntered 1 mg or 3 mg CHS-131 daily. All control patients were orally administered a placebo tablet once a day. All patients enrolled in the study were treatment-naïve RRMS for <3 years.
The human plasma samples used for the analysis were coded and are not individually identifiable because neither the investigator nor any other individuals associated with the investigation or the sponsor can link the specimen to the subject from whom the specimen was collected, either directly or indirectly through coding systems.
The concentration of NFL […] in subject administered placebo, 1 mg daily CHS-131, and 3 mg daily CHS-131 are reported in Tables 1, 2, and 3, respectively.

[3] = 1 mg daily CHS-131 oral, Wk0, RRMS patients
[4] = 1 mg daily CHS-131 oral, Wk12, RRMS patients
[5] = 1 mg daily CHS-131 oral, Wk24, RRMS patients
[6] = 1 mg daily CHS-131 oral, Wk48, RRMS patients
[7] = 3 mg daily CHS-131 oral, Wk0, RRMS patients
[8] = 3 mg daily CHS-131 oral, Wk12, RRMS patients
[9] = 3 mg daily CHS-131 oral, Wk24, RRMS patients
[10] = 3 mg daily CHS-131 oral, Wk48, RRMS patients

With O=S(=O)(Nc1cc(Cl)c(Oc2cnc3ccccc3c2)c(Cl)c1)c1ccc(Cl)cc1Cl [CHS-131] the “new CE lesions in subjects with lower average levels of NFL” value ([1]; FIG. 1) was “fewer new CE lesions”, the “new or enlarging T2 lesions in subjects with lower average levels of NFL” value ([1]; FIG. 2) was “fewer new or enlarging T2 lesions” and the “EDSS in subjects with lower levels of NFL (trend)” value ([1]; FIG. 3) was “lower EDSS”. The concentration of NFL, Max [2, 3] was 29 pg/mL, the concentration of NFL, Mean [2, 3] was 20.8 pg/mL and the concentration of NFL, Median [2, 3] was 19.4 pg/mL. For the same compound, the concentration of NFL, Min [2, 3] was 13.3 pg/mL, the concentration of NFL, Q1 [2, 3] was 19.3 pg/mL and the concentration of NFL, Q3 [2, 3] was 22.8 pg/mL. For the same compound, the concentration of NFL, Max [2, 4] was 160 pg/mL, the concentration of NFL, Mean [2, 4] was 27.6 pg/mL and the concentration of NFL, Median [2, 4] was 17.9 pg/mL. It also gave a concentration of NFL, Min [2, 4] of 2.1 pg/mL, a concentration of NFL, Q1 [2, 4] of 11.7 pg/mL and a concentration of NFL, Q3 [2, 4] of 32.2 pg/mL. The concentration of NFL, Max [2, 5] was 65.5 pg/mL, the concentration of NFL, Mean [2, 5] was 22.3 pg/mL and the concentration of NFL, Median [2, 5] was 17 pg/mL. For the same compound, the concentration of NFL, Min [2, 5] was 3.2 pg/mL, the concentration of NFL, Q1 [2, 5] was 11.8 pg/mL and the concentration of NFL, Q3 [2, 5] was 31.5 pg/mL. The concentration of NFL, Max [2, 6] was 340 pg/mL, the concentration of NFL, Mean [2, 6] was 27.6 pg/mL and the concentration of NFL, Median [2, 6] was 17.5 pg/mL. For the same compound, the concentration of NFL, Min [2, 6] was 2.6 pg/mL, the concentration of NFL, Q1 [2, 6] was 10.1 pg/mL and the concentration of NFL, Q3 [2, 6] was 24.2 pg/mL. The concentration of NFL, Max [2, 7] was 73.7 pg/mL, the concentration of NFL, Mean [2, 7] was 29.9 pg/mL and the concentration of NFL, Median [2, 7] was 19.6 pg/mL. It also gave a concentration of NFL, Min [2, 7] of 11.7 pg/mL, a concentration of NFL, Q1 [2, 7] of 11.8 pg/mL and a concentration of NFL, Q3 [2, 7] of 48.1 pg/mL. For the same compound, the concentration of NFL, Max [2, 8] was 117 pg/mL, the concentration of NFL, Mean [2, 8] was 23.2 pg/mL and the concentration of NFL, Median [2, 8] was 16.4 pg/mL. It also gave a concentration of NFL, Min [2, 8] of 4.9 pg/mL, a concentration of NFL, Q1 [2, 8] of 12.2 pg/mL and a concentration of NFL, Q3 [2, 8] of 28.1 pg/mL. It also gave a concentration of NFL, Max [2, 9] of 74.9 pg/mL, a concentration of NFL, Mean [2, 9] of 20.4 pg/mL and a concentration of NFL, Median [2, 9] of 15.9 pg/mL. It also gave a concentration of NFL, Min [2, 9] of 5.8 pg/mL, a concentration of NFL, Q1 [2, 9] of 10.4 pg/mL and a concentration of NFL, Q3 [2, 9] of 26.6 pg/mL. For the same compound, the concentration of NFL, Max [2, 10] was 119 pg/mL, the concentration of NFL, Mean [2, 10] was 19.3 pg/mL and the concentration of NFL, Median [2, 10] was 14.3 pg/mL. It also gave a concentration of NFL, Min [2, 10] of 4.9 pg/mL, a concentration of NFL, Q1 [2, 10] of 9 pg/mL and a concentration of NFL, Q3 [2, 10] of 20.4 pg/mL.
